Assay results taken from publication PMC4349624, “In vitro synergistic effect of fluoroquinolone analogues in combination with artemisinin against Plasmodium falciparum; their antiplasmodial action in rodent malaria model” (Malaria Journal, 2015).
In brackets after ≈: the same amount, converted by molar mass. Several values for one entry are separate records, joined by “and”; a condition that tells them apart may be missing. Equal values may be shown once. Entries after “also recorded” stand apart in the source; their conditions may differ. Read-outs that look alike come from different tables or passages of the source.

How the values were obtained:
[1] = tested on: 3D7 strain of P. falciparum; settings: cited from earlier work
[2] = tested on: Plasmodium falciparum 3D7 strain; assay: antiplasmodial interaction assay, fixed-ratio combination isobologram method with artemisinin; assay type: cell-based; settings: for Mean ƩFIC ± SD: combination with artemisinin, over the fixed-ratio combinations; for antiplasmodial interaction with artemisinin (in words): four fixed-ratio combinations, in vitro; for Drug B Mean FIC50 ± SE: n = 3
Procedure: Stock culture of malaria parasite P. falciparum 3D7 strain (chloroquine sensitive) was continuously maintained in vitro using a CO2 incubator under low-oxygen concentration (3%) and high carbon dioxide atmosphere (4%) along with nitrogen (93%), incubated at a temperature of 37°C. The parasites were maintained on O^+ human red blood cells suspended in a complete culture medium. Each litre of RPMI-1640 aqueous culture medium was prepared with 10.4 g of powdered RPMI-1640 (with glutamine but without sodium bicarbonate), 5.94 g of HEPES buffer, 1 g of dextrose and 40 mg of gentamicin. Complete medium was constituted just before use by adding sterile 5% sodium bicarbonate at the rate of 4 ml per 96 ml, and supplemented with 10% (v/v) pooled O^+ human serum. Infected erythrocytes were suspended in this culture media initiated at a haematocrit value of 5% and parasitemia was kept between 2 and 4% with sub-culturing done beyond 5%. Medium was changed once a day and percentage parasitemia was monitored using Giemsa stained slides.
Artemisinin (Sigma Aldrich, USA) was prepared in DMSO to get the stock solution of 1 mg/ml strength. Compounds 10, 12 and 18 were synthesized according to the procedure described by Dixit et al. and each compound was made to strength of 1 mg/ml stock solution in DMSO. The stock solutions were diluted on the day of experiment to get the desired concentrations for each compound. The highest amount of DMSO in diluted concentrations was 0.125%, and had no effect on parasite growth.
In each combination assay, two compounds (Compound A, artemisinin and Compound B, a fluoroquinolone derivative or norfloxacin) were combined in four fixed ratios (4:1, 3:2, 2:3, and 1:4).
Compound dilutions of each combination solution were made in sterile, flat-bottomed, 96-well tissue culture plates as described by Fivelman et al.. Six times two-fold serial dilution was done for each combination in triplicate. Each well contained a total volume of 200 μl of complete culture medium with or without compound and pre-synchronized infected red blood cells (1% parasitemia at 2.5% haematocrit). Control cultures (without compound) were maintained on the same plate in triplicate. Two 96-well plates (for six combinations) were used for each combination experiment. The plates were stacked in a CO2 incubator and incubated at 37°C for 48 hours.
After 48-hour incubation, thin blood smear slides were prepared, air dried, methanol fixed, and stained in Giemsa solution for 40 min. After staining, slides were removed from coupling jar, washed in running tap water and air dried. The Giemsa-stained slides were examined for counting the number of parasites in random adjacent microscopic fields, equivalent to about 4,000 erythrocytes at 1,000 × magnification. Per cent parasitemia was calculated. Reproducibility of counts was checked by two other readers to maintain the quality control.
For each combination assay, IC50 was calculated from two sets of concentration response graphs, each containing compound alone curve and four combination curves.
ƩFIC <1 represents synergism, ƩFIC > = 1 and <2 represents additive interaction, ƩFIC > = 2 and <4 represents slight antagonism while ƩFIC > = 4 represents marked antagonism.

[3] = tested on: Plasmodium berghei ANKA; assay: Peters' four-day suppressive test in BALB/c mice; assay type: in vivo; settings: ip, once daily days 0 to 3, BALB/c mice; n = 5
Source text: Evaluation of the curative potential of the fluoroquinolone derivatives was done using the method described by Ryley and Peters, 1970 (rodent malaria four-day suppressive test; Peters’ four-day suppressive test). Rodent malaria parasite Plasmodium berghei ANKA was used.
[…] BALB/c inbred albino mice (25–30 g) of the male sex were obtained from the Animal Facility Centre of the Department of Zoology, University of Delhi. The animals were fed ad libitum with standard feed and had free access to water. They were maintained under standard conditions of humidity, temperature (25°C) and 12 hours light/darkness cycles. The animals were acclimatized for two weeks before the commencement of the study and were ensured to exclude all zoonotic agents.
Day 0: Heparinized blood was withdrawn from an infected donor mouse with approximately 25-30% parasitemia, and diluted in 1x PBS to 10^8 parasitized erythrocytes per mL. An aliquot of 0.2 mL (=2 × 10^7 parasitized erythrocytes) of this suspension was injected intraperitoneally (ip) into experimental groups of five mice each. One to three hours post-infection, the experimental groups were treated with varying doses of each of the test compounds (0.5, 1, 10, 25 mg/kg BW) by the ip route. Each compound was made to strength of 5 mg/ml stock solution in 10% DMSO and administered according to desired concentration and individual body weight. Artemisinin was given to the standard drug group and 0.2 mL of normal saline to the negative control group.
Day 1, 2 and 3: 24 hours, 48 hours and 72 hours post-infection, the experimental groups of mice were treated again with the same dose and by the same route as on day 0.
Day 4: 24 hours after the last treatment (i.e., 96 hours post-infection), blood was drawn from the tail region of mice and smears were prepared. […] Differences in parasitemia percentage between treated groups and untreated animals were analysed by a one-way ANOVA test using IBM SPSS Statistics 16.0 and differences considered significant if P < 0.05. […] Percentinhibitionactivity=100–Meanparasitemia/control×100
Untreated control mice typically died approximately one week after infection. […] The mean survival time was calculated in comparison to untreated (Normal saline) and standard drug (artemisinin) treated groups. Differences in survival time between treated groups and untreated animals were analysed by Log-rank (Mantel-Cox) test using GraphPad Prism 5 and differences considered significant if P <0.005. Observations concerning adverse effects due to the compounds were recorded.

[4] = tested on: BALB/c mice; assay: LD50 test; assay type: in vivo; settings: ip
Procedure: Therapeutic Index (TI) values were determined by the formula: TherapeuticIndexTI=MedianlethaldoseLD50/MedianeffectivedoseED50

[5] = tested on: host cell; set-up: method as in PMID 22424611; settings: read-out: in vitro host cell cytotoxicity IC50; cited from earlier work
[6] = fluoroquinolones in clinical use, reported values, read-out: reported IC50 against 3D7 strain of P. falciparum in vitro
[7] = artemisinin (A) : drug B ratio 1:4
[8] = artemisinin (A) : drug B ratio 2:3
[9] = artemisinin (A) : drug B ratio 3:2
[10] = artemisinin (A) : drug B ratio 4:1
[11] = ratio A:B 1:4, combined with artemisinin (drug A)
[12] = ratio A:B 2:3, combined with artemisinin (drug A)
[13] = ratio A:B 3:2, combined with artemisinin (drug A)
[14] = ratio A:B 4:1, combined with artemisinin (drug A)
[15] = P. falciparum 3D7, in vitro, read-out: IC50 (equivalent in μM)

SMILES | IC50 [1, 6] | interaction (class from Σ FICs) [2, 7] | Σ FICs [2, 7] | interaction (class from Σ FICs) [2, 8] | Σ FICs [2, 8] | interaction (class from Σ FICs) [2, 9] | Σ FICs [2, 9] | interaction (class from Σ FICs) [2, 10] | Σ FICs [2, 10] | antiplasmodial interaction with artemisinin (in words) [2] | Drug B Mean FIC50 ± SE ([2]; ratio A:B 0:5, drug B alone) | Drug B Mean FIC50 ± SE [2, 11] | Drug B Mean FIC50 ± SE [2, 12] | Drug B Mean FIC50 ± SE [2, 13] | Drug B Mean FIC50 ± SE [2, 14] | Mean ED50 ± SE [3] | Therapeutic Index (TI) = LD50/ED50 [4] | IC50 [5] | IC50 (inhibited the parasite multiplication rate to 50%) ± SE ([1]; P. falciparum 3D7, in vitro) | IC50 [1, 15] | other results
CCn1cc(C(=O)O)c(=O)c2cc(F)c(N3CCNCC3)nc21 [enoxacin, reference compound] | 121 µM | – | – | – | – | – | – | – | – | – | – | – | – | – | – | – | – | – | – | – | –
CCOC(=O)c1cn(CC#N)c2cc(Cl)c(F)cc2c1=O [Compound 10] | – | SYN (ƩFIC <1 represents synergism) | 0.58 | ADD (ƩFIC > = 1 and <2 represents additive interaction) | 1.01 | SYN (ƩFIC <1 represents synergism) | 0.80 | SYN (ƩFIC <1 represents synergism) | 0.76 | highly synergistic interactions; also recorded: synergistic antiplasmodial interaction in three of the four fixed-ratio combinations evaluated and additive in the remaining one | 0.93 ± 0.04 | 0.41 ± 0.03 | 0.53 ± 0.03 | 0.22 ± 0.02 | 0.15 ± 0.02 | 2.31 mg/kg BW and 2.31 ± 0.19 mg/kg BW | 346.32 | 143 µM | 2.56 ± 0.30 µg/mL (≈ 8.29 µM) | 8.69 µM | Mean ƩFIC ± SD [2]: 0.788 ± 0.177
CC1COc2c(N3CCN(C)CC3)c(F)cc3c(=O)c(C(=O)O)cn1c23 (stereo not drawn) [ofloxacin, reference compound] | 152 µM | – | – | – | – | – | – | – | – | – | – | – | – | – | – | – | – | – | – | – | –
CCn1cc(C(=O)O)c(=O)c2cc(F)c(N3CCNCC3)cc21 [Norfloxacin, norfloxacin, reference compound] | 53.9 µM | SYN (ƩFIC <1 represents synergism) | 0.74 | ADD (ƩFIC > = 1 and <2 represents additive interaction) | 1.53 | SYN (ƩFIC <1 represents synergism) | 0.81 | ADD (ƩFIC > = 1 and <2 represents additive interaction) | 1.36 | synergistic interaction in two combinations, while additive in the remaining two | 0.98 ± 0.04 | 0.60 ± 0.02 | 0.87 ± 0.03 | 0.52 ± 0.04 | 0.45 ± 0.02 | – | – | – | – | – | Mean ƩFIC ± SD [2]: 1.11 ± 0.394
NC1CCN(c2c(F)cc3c(=O)c(C(=O)O)cn(C4CC4)c3c2Cl)C1 (stereo not drawn) [clinafloxacin, reference compound] | 37.5 µM | – | – | – | – | – | – | – | – | – | – | – | – | – | – | – | – | – | – | – | –
CCOC(=O)c1cn(Cc2cccc(Cl)c2)c2cc(Cl)c(F)cc2c1=O [Compound 18] | – | SYN (ƩFIC <1 represents synergism) | 0.55 | ADD (ƩFIC > = 1 and <2 represents additive interaction) | 1.15 | ADD (ƩFIC > = 1 and <2 represents additive interaction) | 1.02 | SYN (ƩFIC <1 represents synergism) | 0.73 | synergistic in two combinations, while additive in the other two | 0.97 ± 0.08 | 0.33 ± 0.02 | 0.66 ± 0.03 | 0.47 ± 0.03 | 0.16 ± 0.01 | 2.60 mg/kg BW and 2.60 ± 0.18 mg/kg BW | 307.69 | 129 µM | 2.73 ± 0.23 µg/mL (≈ 6.92 µM) | 6.93 µM | –
CCOC(=O)c1cn(Cc2c[nH]nn2)c2cc(Cl)c(F)cc2c1=O [Compound 12] | – | SYN (ƩFIC <1 represents synergism) | 0.56 | ADD (ƩFIC > = 1 and <2 represents additive interaction) | 1.27 | SYN (ƩFIC <1 represents synergism) | 0.83 | SYN (ƩFIC <1 represents synergism) | 0.78 | highly synergistic interactions | 1.11 ± 0.08 | 0.32 ± 0.01 | 0.77 ± 0.03 | 0.23 ± 0.02 | 0.15 ± 0.003 | 3.09 mg/kg BW and 3.09 ± 0.22 mg/kg BW | 258.90 | 171 µM | 1.33 ± 0.67 µg/mL (≈ 3.79 µM) | 3.79 µM | antiplasmodial interaction with artemisinin (in words) ([2]; listed as compound 12): synergistic interaction in three combinations and additive in one
